Measurements from patent publication US20130287807A1, “COMPOUNDS FOR TREATING SYMPTOMS ASSOCIATED WITH PARKINSON'S DISEASE” (priority 2008, published 2013).
Square brackets hold non-standard residues; d marks the D form. Ends that are not written are not given here. Tle = CC(C)(C)[C@H](N)C(=O)O

Columns and labels:
[1] = system: monoclonal antibody (DAEFRH-peptide-specific); experiment: Inhibition assay (ELISA): mimotope peptides compete with plate-bound original epitope DAEFRH for recognition by the monoclonal antibody; format: binding, Mice; parameters: key to inhibition (s/m/—): s: strong inhibition; m: moderate inhibition; —: -: no inhibition; conditions: for inhibition of binding of the monoclonal antibody to the original epitope: text to FIGS. 2-9; for inhibition (s/m/—): peptide lists of Example 4; for Inhibitory capacity of mimotopes: summary Tables 1 and 2 (Examples 2, 3)
Text: Mice are vaccinated with the 6mer peptide DAEFRH (natural N-terminal Aβ42 sequence) linked to the protein bovine serum albumin BSA (to make use of the hapten-carrier-effect), emulsified in CFA (first injection) and IFA (booster injections). DAEFRH-peptide-specific, antibody-producing hybridomas are detected by ELISA (DAEFRH-peptide-coated ELISA plates).
FIGS. 2 and 3 describe the results of inhibition assays performed with mimotope peptides included in and obtained from the 5 libraries (as described in WO 2004/062556). The mimotope peptides compete with the original epitope for recognition by the monoclonal antibody. Original epitope and mimotope peptides contain an additional C at the C-terminus for coupling to a protein carrier (if desired).
(§1) After blocking with PBS/BSA 1% (200 μl/well, 12 h, 4° C.), the plates are washed 3× times with PBS/Tween. Then, biotinylated monoclonal antibody (1:2000, 50 μl/well) and peptides (50 μl/well) at 50, 5, 0.5, 0.05, 0.005, and 0.0005 μg/ml are added for 20 min. at 37° C. The plates are washed 3× times with PBS/Tween and are incubated with horseradish peroxidase (HRP)-labeled streptavidin (100 μl/well, 30 min, RT). The plates are washed 5× times with PBS/Tween and are incubated with ABTS+H2O2(0.1% w/v, 10 to 45 min) and the reaction is stopped with citric acid followed by photometric evaluation (wavelength 405 nm).
as §1, with “different concentrations” for “50, 5, 0.5, 0.05, 0.005, and 0.0005 μg/ml”, “ABTS+H2O2 (0.1%” for “ABTS+H2O2(0.1%”
as §1, with “different concentrations” for “50, 5, 0.5, 0.05, 0.005, and 0.0005 μg/ml”

[2] = system: monoclonal antibody MV-001; experiment: In vitro binding assay (ELISA), BSA-coupled peptides, parental antibody MV-001; parameters: species or system C57/B16 mice; conditions: Table 1C; peptide-BSA on plate, compared to original epitope
Procedure: Peptides derived from Phage Display as well as variants thereof were coupled to BSA and bound to ELISA plates (1 μM; as indicated in the respective figures) and subsequently incubated with the monoclonal antibody that was used for the screening procedure to analyse binding capacity of identified peptides.
Legend to Table 1C: the binding capacity is coded by the following binding code: 1:X describes the dilution factor of the parental AB

[3] = competition ELISA, plate-bound DAEFRH-C-BSA

inhibition of binding of the monoclonal antibody to the original epitope [1, 3] | Binding Capacity [2] | Compound | further results
moderately inhibit |  | GAEFRFT [Peptide 4014] | inhibition (s/m/—) [1]: m
not inhibitory |  | DIGWRG (DIGWRGC) [Peptide 3011] | Inhibitory capacity of mimotopes [1]: none
 | 3 (strong binding :>20000) | QLFKHSPC [p4747] | 
block epitope recognition |  | CC[C@H](C)[C@H](NC(=O)[C@H](CCCCN)NC(=O)[C@H](CC(C)C)NC(=O)[C@H](CCC(=O)O)NC(=O)[C@H](CCCCN)NC(=O)[C@@H](N)CC(=O)O)C(=O)N[C@@H](CS)C(=O)O [Peptide 1236, DKELKI] | Inhibitory capacity of mimotopes [1]: weak
 | 2 (medium binding :4000-20000) | ATFRHSTC [p4735] | 
 | 2 (medium binding :4000-20000) | QVMRHHAC [p4711] | 
 | 2 (medium binding :4000-20000) | MLPFRHGC [p4731] | 
not able to inhibit |  | WHWSWR (WHWSWRC) [Peptide 4004] | Inhibitory capacity of mimotopes [1]: none
block epitope recognition |  | CC[C@H](C)[C@H](NC(=O)[C@H](CCCCN)NC(=O)[C@H](CC(C)C)NC(=O)[C@H](CCC(=O)O)NC(=O)[C@H](CCCNC(=N)N)NC(=O)[C@@H](N)CC(=O)O)C(=O)N[C@@H](CS)C(=O)O [Peptide 1237, DRELKI] | Inhibitory capacity of mimotopes [1]: weak
moderately inhibit |  | GSEFRDY [Peptide 4013] | inhibition (s/m/—) [1]: m
not inhibitory |  | DKE(tBuGly)R (DKE[Tle]R) [Peptide 4061] | inhibition (s/m/—) [1]: —
block epitope recognition |  | CC[C@H](C)[C@H](NC(=O)[C@H](CCCNC(=N)N)NC(=O)[C@H](CC(C)C)NC(=O)[C@H](CCC(=O)O)NC(=O)[C@H](CCCNC(=N)N)NC(=O)[C@@H](N)CC(=O)O)C(=O)N[C@@H](CS)C(=O)O [Peptide 1235, DRELRI] | Inhibitory capacity of mimotopes [1]: strong
 | 2 (medium binding :4000-20000) | SSSFFPRC [p4708] | 
block epitope recognition |  | C[C@@H](O)[C@H](NC(=O)[C@H](CCCNC(=N)N)NC(=O)[C@H](Cc1ccccc1)NC(=O)[C@H](CCC(=O)O)NC(=O)[C@H](Cc1c[nH]c2ccccc12)NC(=O)[C@@H](N)CO)C(=O)N[C@@H](CS)C(=O)O [Peptide 4002, SWEFRT] | IC50 (inhibition of monoclonal antibody recognition of DAEFRH) ([1]; competition ELISA, plate-bound DAEFRH-C-BSA, biotinylated mAb 1:2000): less than 0.4 μg/ml; Inhibitory capacity of mimotopes [1]: strong
 | 2 (medium binding :4000-20000) | AEFMHSVC [p4739] | 
 | 2 (medium binding :4000-20000) | AEFSHWHC [p4737] | 
block epitope recognition |  | CC[C@H](C)[C@H](NC(=O)[C@H](CCCNC(=N)N)NC(=O)[C@H](CC(C)C)NC(=O)[C@H](CCC(=O)O)NC(=O)[C@H](CCCCN)NC(=O)[C@@H](N)CC(=O)O)C(=O)N[C@@H](CS)C(=O)O [Peptide 3001, DKELRI] | Inhibitory capacity of mimotopes [1]: strong
 | 2 (medium binding :4000-20000) | SQYFPRPC [p4729] | 
not inhibitory |  | DISFRG (DISFRGC) [Peptide 3010] | Inhibitory capacity of mimotopes [1]: none
 | 3 (strong binding :>20000) | SNSEFRRC [p4743] | 
 | 2 (medium binding :4000-20000) | ATFRHSPC [p4716] | 

inhibition of binding of the monoclonal antibody to the original epitope [1, 3] | Binding Capacity [2] | Compound | further results
 | 1 (weak binding :<4000) | HEPLFSHC [p4719] | 
 | 2 (medium binding :4000-20000) | DTYFPRSC [p4703] | 
block epitope recognition |  | CC[C@H](C)[C@H](NC(=O)[C@H](CCCNC(=N)N)NC(=O)[C@H](CC(C)C)NC(=O)[C@H](CCC(=O)O)NC(=O)[C@H](Cc1c[nH]c2ccccc12)NC(=O)[C@@H](N)CC(=O)O)C(=O)N[C@@H](CS)C(=O)O [Peptide 3002, DWELRI] | Inhibitory capacity of mimotopes [1]: intermediate
 | 3 (strong binding :>20000) | SAGSFRHC [p4710] | 
 | 2 (medium binding :4000-20000) | SLMRHSSC [p4721] | 
 | 2 (medium binding :4000-20000) | APMYFPHC [p4717] | 
strongly block epitope recognition |  | SAEFRAT [Peptide 4016] | inhibition (s/m/—) [1]: s
strongly block epitope recognition |  | DAEFRWP [Peptide 4011] | inhibition (s/m/—) [1]: s
 | 2 (medium binding :4000-20000) | LQFKHSTC [p4734] | 
 | 3 (strong binding :>20000) | NSSELRHC [p4752] | 
 | 1 (weak binding :<4000) | EDWFFWHC [p4709] | 
can successfully compete |  | DAEFRH (DAEFRHC) [Peptide 1737, reference compound] | 
 | 1 (weak binding :<4000) | TPLMFWHC [p4733] | 
 | 2 (medium binding :4000-20000) | TYFSHSLC [p4718] | 
 | 2 (medium binding :4000-20000) | VELRHSRC [p4704] | 
strongly block epitope recognition |  | SWEFRNP [Peptide 4017] | inhibition (s/m/—) [1]: s
 | 1 (weak binding :<4000) | TSTEMWHC [p4754] | 
 | 3 (strong binding :>20000) | NELRHSTC [p4701] | 
 | 1 (weak binding :<4000) | QPNLFYHC [p4713] | 
 | 2 (medium binding :4000-20000) | SAMRHSLC [p4732] | 
 | 3 (strong binding :>20000) | LHIPFRHC [p4726] | 

inhibition of binding of the monoclonal antibody to the original epitope [1, 3] | Binding Capacity [2] | Compound | further results
 | 3 (strong binding :>20000) | SQSYFKHC [p4755] | 
 | 2 (medium binding :4000-20000) | IGFRHDSC [p4742] | 
 | 3 (strong binding :>20000) | GEMRHQPC [p4702] | 
 | 3 (strong binding :>20000) | ATPLFRHC [p4723] | 
 | 2 (medium binding :4000-20000) | YSMRHDAC [p4705] | 
strongly block epitope recognition |  | SWEFRLY [Peptide 4018] | inhibition (s/m/—) [1]: s
hardly inhibitory |  | KKELRI (KKELRIC) [Peptide 1234] | Inhibitory capacity of mimotopes [1]: none
 | 2 (medium binding :4000-20000) | TGLMFKHC [p4736] | 
 | 2 (medium binding :4000-20000) | NELFKHFC [p4727] | 
not inhibitory |  | ATYAYWN [Peptide 4038] | inhibition (s/m/—) [1]: —
 | 3 (strong binding :>20000) | EFLRHTLC [p4722] | 
 | 3 (strong binding :>20000) | SNFRHSVC [p4749] | 
 | 3 (strong binding :>20000) | APIQFRHC [p4750] | 
 | 3 (strong binding :>20000) | THMEFRRC [p4745] | 
 | 1 (weak binding :<4000) | QELKRYYC [p4724] | 
 | 2 (medium binding :4000-20000) | AYFPHTSC [p4751] | 
 | 2 (medium binding :4000-20000) | AANYFPRC [p4706] | 
 | 3 (strong binding :>20000) | SELRHSTC [p4744] | 
 | 3 (strong binding :>20000) | SEFSHSSC [p4712] | 

Compound | inhibition of binding of the monoclonal antibody to the original epitope [1, 3] | Binding Capacity [2] | further results
C[C@H](NC(=O)[C@H](CC(=O)O)NC(=O)[C@H](CCCNC(=N)N)NC(=O)[C@H](Cc1ccccc1)NC(=O)[C@H](CCC(=O)O)NC(=O)[C@H](Cc1c[nH]c2ccccc12)NC(=O)[C@@H](N)CC(=O)O)C(=O)N[C@@H](CS)C(=O)O [Peptide 1241, DWEFRDA] | block epitope recognition |  | Inhibitory capacity of mimotopes [1]: strong
